Experimental data taken from patent US9357778B2, “N-acyl-2-(cyclo)alkypyrrolidines and piperidines useful as fungicides” (BAYER CROPSCIENCE AG, priority 2012, dated 2016).

Assays:
[1] = log P by HPLC on reversed-phase column (C 18), EEC Directive 79/831 Annex V.A8; assay type: physicochemical; conditions: 40° C., 0.1% aqueous formic acid and acetonitrile
Experimental: In table 1, the log P values were determined in accordance with EEC Directive 79/831 Annex V.A8 by HPLC (High Performance Liquid Chromatography) on a reversed-phase column (C 18), using the method described below: Temperature: 40° C.; Mobile phases: 0.1% aqueous formic acid and acetonitrile; linear gradient from 10% acetonitrile to 90% acetonitrile. Calibration was carried out using unbranched alkan-2-ones (comprising 3 to 16 carbon atoms) with known log P values (determination of the log P values by the retention times using linear interpolation between two successive alkanones). lambda-max-values were determined using UV-spectra from 200 nm to 400 nm and the peak values of the chromatographic signals.

Pyrenophora teres = assay: In vivo preventive test on Pyrenophora teres (barley); conditions: 500 ppm of active ingredient, evaluated 7-9 days after inoculation
Experimental: In Vivo Preventive Test on Pyrenophora teres (Barley) • Solvent: 49 parts by weight of N,N-dimethylformamide • Emulsifier: 1 part by weight of alkylaryl polyglycol ether To produce a suitable preparation of active compound, 1 part by weight of active compound is mixed with the stated amounts of solvent and emulsifier, and the concentrate is diluted with water to the desired concentration. To test for preventive activity, young plants are sprayed with the preparation of active compound at the stated rate of application. One day after this treatment, the plants are inoculated with an aqueous spore suspension of Pyrenophora teres. The plants remain for 48 hours in an incubation cabinet at 22° C. and a relative atmospheric humidity of 100%. Then the plants are placed in a greenhouse at a temperature of approximately 20° C. and a relative atmospheric humidity of approximately 80%. The test is evaluated 7-9 days after the inoculation. 0% means an efficacy which corresponds to that of the untreated control while an efficacy of 100% means that no disease is observed.

Alternaria solani = assay: In vivo preventive test on Alternaria solani (tomato); conditions: evaluated 7 days after inoculation
Experimental: In Vivo Preventive Test on Alternaria solani (Tomato) • Solvent: 49 parts by weight of N,N-dimethylformamide • Emulsifier: 1 part by weight of alkylarylpolyglycolether To produce a suitable preparation of active compound, 1 part by weight of active compound is mixed with the stated amounts of solvent and emulsifier, and the concentrate is diluted with water to the desired concentration. To test for preventive activity, young plants are sprayed with the preparation of active compound at the stated rate of application. One day after this treatment, the plants are inoculated with an aqueous spore suspension of Alternaria solani. The plants remain for one day in an incubation cabinet at approximately 22° C. and a relative atmospheric humidity of 100%. Then the plants are placed in an incubation cabinet at approximately 20° C. and a relative atmospheric humidity of 96%. The test is evaluated 7 days after the inoculation. 0% means an efficacy which corresponds to that of the untreated control while an efficacy of 100% means that no disease is observed.

Structure (SMILES) | logP [1] | Efficacy (Pyrenophora teres) [%] | Efficacy (Alternaria solani; 500 ppm of active ingredient) [%] | Efficacy (Alternaria solani; 100 ppm of active ingredient) [%]
Cn1nc(C(F)F)c(C(=O)N2CCCC2C(F)(F)F)c1Cl (stereo not drawn) [Example 1] | 2.39 | 100 | – | –
Cn1nc(C(F)F)c(C(=O)N2CCCC2C(F)(F)F)c1F (stereo not drawn) [Example 2] | 2.25 | 100 | – | –
CCCCCCC1CCCN1C(=O)c1cn(C)nc1C(F)F (stereo not drawn) [Example 6] | 3.37 | 95 | 94 | –
CCCCCCC1CCCN1C(=O)c1c(C(F)F)nn(C)c1Cl (stereo not drawn) [Example 7] | 3.94 | 100 | 94 | –
Cn1cc(C(=O)N2CCCC2C23CC4CC(CC(C4)C2)C3)c(C(F)F)n1 (stereo not drawn) [Example 12] | 3.89 | 100 | 94 | 89
Cn1nc(C(F)F)c(C(=O)N2CCCC2C23CC4CC(CC(C4)C2)C3)c1Cl (stereo not drawn) [Example 13] | 4.67 | 100 | 94 | –
Cn1nc(C(F)F)c(C(=O)N2CCCCC2C(F)(F)F)c1Cl (stereo not drawn) [Example 18] | 2.80 | 89 | – | –
Cn1nc(C(F)F)c(C(=O)N2CCCCC2C(F)(F)F)c1F (stereo not drawn) [Example 19] | 2.63 | 94 | – | –
CCCCCCC1CCCCN1C(=O)c1cn(C)nc1C(F)F (stereo not drawn) [Example 20] | 3.71 | 100 | 100 | 94
CCCCCCC1CCCCN1C(=O)c1c(C(F)F)nn(C)c1Cl (stereo not drawn) [Example 21] | 4.39 | 100 | 100 | –
CCCCCCC1CCCCN1C(=O)c1c(C(F)F)nn(C)c1F (stereo not drawn) [Example 22] | 4.18 | 100 | 100 | –
Cn1nc(C(F)F)c(C(=O)N2CCCCC2C2CCCCC2)c1Cl (stereo not drawn) [Example 23] | 3.85 | 100 | 88 | –
CCCOCCC1CCCCN1C(=O)c1cn(C)nc1C(F)F (stereo not drawn) [Example 27] | 2.39 | – | – | –
CCCOCCC1CCCCN1C(=O)c1c(C(F)F)nn(C)c1Cl (stereo not drawn) [Example 28] | 2.90 | – | – | –
CCCOCCC1CCCCN1C(=O)c1c(C(F)F)nn(C)c1F (stereo not drawn) [Example 29] | 2.73 | 100 | 94 | –
CCCCOCCC1CCCCN1C(=O)c1cn(C)nc1C(F)F (stereo not drawn) [Example 30] | 2.80 | 95 | 89 | –
CCCCOCCC1CCCCN1C(=O)c1c(C(F)F)nn(C)c1Cl (stereo not drawn) [Example 31] | 3.35 | 90 | 89 | –
CCCCOCCC1CCCCN1C(=O)c1c(C(F)F)nn(C)c1F (stereo not drawn) [Example 32] | 3.19 | 100 | 94 | –
Cn1cc(C(=O)N2CCCCC2CCOCC2CC2)c(C(F)F)n1 (stereo not drawn) [Example 33] | 2.32 | 94 | – | –
Cn1nc(C(F)F)c(C(=O)N2CCCCC2CCOCC2CC2)c1Cl (stereo not drawn) [Example 34] | 2.82 | 94 | – | –
Cn1cc(C(=O)N2CCCCC2CCOCC2CCC2)c(C(F)F)n1 (stereo not drawn) [Example 38] | 2.92 | 89 | – | –
COCCCOCCC1CCCCN1C(=O)c1c(C(F)F)nn(C)c1Cl (stereo not drawn) [Example 39] | 2.39 | – | – | –
COCCCOCCC1CCCCN1C(=O)c1cn(C)nc1C(F)F (stereo not drawn) [Example 41] | 1.96 | 70 | – | –
Cn1nc(C(F)F)c(C(=O)N2CCCCC2CCOCCC2CCCCC2)c1Cl (stereo not drawn) [Example 43] | 4.87 | 90 | – | –
COCCCC1CCCCN1C(=O)c1cn(C)nc1C(F)F (stereo not drawn) [Example 45] | 1.88 | – | – | –
COCCCC1CCCCN1C(=O)c1c(C(F)F)nn(C)c1Cl (stereo not drawn) [Example 46] | 2.33 | – | – | –
Cn1nc(C(F)F)c(C(=S)N2CCCC2CC2CCCCC2)c1F (stereo not drawn) [Example 51] | 3.96 | – | – | –
Cn1nc(C(F)F)c(C(=S)N2CCCC2C23CC4CC(CC(C4)C2)C3)c1F (stereo not drawn) [Example 52] | 4.51 | – | – | –
